Experimental data from patent EP3061351B1, “Food product for young subjects” (Dopharma Research B.V., priority 2015, dated 2016).

Key:
[1] = system: Caco-2 cells; assay: Interleukin-8 production of DON-challenged Caco-2 cells (ELISA); assay type: cell-based; conditions: apical side, 24 h incubation with 4.2 µM DON, digests 1:100 added 2 hours before DON
Method: (§1) Caco-2 cells were cultured in minimal essential media (MEM), supplemented with 10% FBS, 1% non essential amino acids (NEAA), 1% pyruvate, penicillin (100 U/mL) and streptomycin (100 µg/mL), all from Gibco (Life Technologies Europe, Bleiswijk, The Netherlands). Experiments with Caco-2 cells were conducted with cells grown on sterile 0.3 cm2 transwell with 0.4 µm pore polyester membrane inserts placed in a 24-well plate (Corning, Sigma-Aldrich, The Netherlands), if not stated otherwise. The cells were seeded at a density of 1 * 10^5 cells per insert. The cell culture plates were incubated at 37°C, in a humidified atmosphere with 5% CO2. […] The cell culture was regularly tested and found to be free of mycoplasma contamination.
Caco-2 and IPEC-J2 cells were grown on inserts and in 12 well plates respectively. Confluent layers of cells were incubated with 1:100 dilutions of digests 2 hours prior to addition of DON. Cells were then incubated in the presence of both digests and DON for 24 hours prior to analysis. TEER was measured as described above. Interleukin-8 (IL-8) was analyzed using porcine CXCL8/IL-8 DuoSet ELISA kit (DY535, R&D systems Abbingdon, UK) according to the manufacturer's protocol. Apical an basolateral supernatant of transwell plates were used for analysis. Samples were diluted ten times in PBS. […]

[2] = 4.2 µM for 24 hours, Akbari et al.; cited from earlier work
[3] = system: Caco-2 cells; assay: TEER measurements of Caco-2 monolayer challenged with DON; assay type: cell-based; conditions: 4.2 µM DON, 24 hours
Method: as §1
Caco-2 cells were cultured as described above. The integrity of the monolayer was evaluated on a regular basis using the first two 24-well plates during 21 days. To avoid contamination, in the next well plates, TEER was only measured right before the start of the experiment. On average, TEER values for untreated cells were 550 ± 24 Ω˙cm2. […]
Caco-2 and IPEC-J2 cells were grown on inserts and in 12 well plates respectively. […] TEER was measured as described above. Interleukin-8 (IL-8) was analyzed using porcine CXCL8/IL-8 DuoSet ELISA kit (DY535, R&D systems Abbingdon, UK) according to the manufacturer's protocol. […]

[4] = system: IPEC-J2 cells; assay: MTT assay, cytotoxicity of DON; assay type: cell-based, porcine; conditions: 4.2 µM DON, confirmation of the literature, data not shown
Method: Intestinal porcine epithelial cells (IPEC-J2 passages 83 - 87) were a kind gift from prof. R. Pieters (IRAS, Utrecht University, The Netherlands). IPEC-J2 cells were cultured in 25 cm^2 cell culture flasks (Greiner Bio-One, Alphen a/d Rijn, The Netherlands) in Dulbecco's modified Eagle's medium (DMEM)/ Ham's F12 supplemented with 10% fetal bovine serum, penicillin (100 U/mL) and streptomycin (100 µg/mL) (Gibco, Life Technologies Europe, Bleiswijk, The Netherlands). IPEC-J2 cells were used for MTT analysis.
To confirm lack of cytotoxicity at 4.2 µM of DON as published previously by Akbari et al. (The FASEB Journal […]; 28, 2414-2429), an MTT assay using IPEC-J2 cells was performed in a 96-well plate. The MTT assay assesses cell viability by analyzing the capability of cells to reduce the tetrazolium dye MTT (3-(4,5-dimethylthiazol-2-yl)-2.5-diphenyltetrazolium bromide, Sigma Aldrich, Zwijndrecht, The Netherlands) into the purple colored formazan. Using colorimetric analysis, the cell viability is quantified. For the MTT assay, a 5 mg/ml MTT-stock was prepared in PBS and this was diluted six times in 10% FBS in medium. Supernatant was aspirated and cells were incubated with 100 µl of the MTT solution. This was incubated for 3 hours in the incubator. […] Plate was shaken at low intensity for ten minutes and absorption at 560 nm was measured using spectrophotometer (Fluostar Omega, BMG Labtech).

[5] = concentration of 4.2 µM, Akbari et al.; cited from earlier work
[6] = system: streptococci; conditions: among naturally present medium and long chain free fatty acids, Kabara et al. 1972; cited from earlier work

| Compound | IL8 production [1] [pg/mL] | TEER reduction [2] [%] | TEER decrease as compared to control [3] [%] | cytotoxicity (MTT assay) [4] | direct cytotoxicity [5] | activity against streptococci [6] |
| --- | --- | --- | --- | --- | --- | --- |
| CC1=C[C@H]2O[C@@H]3[C@H](O)C[C@](C)([C@@]2(CO)[C@H](O)C1=O)[C@]31CO1 [DON, Deoxynivalenol] | 121.7 | ~80 | 15 | not cytotoxic | not cytotoxic | – |
| CCCCCCCCCCCC(=O)O [lauric acid] | – | – | – | – | – | among the most active free fatty acids |
| CCCCCC/C=C\CCCCCCCC(=O)O [palmitoleic acid] | – | – | – | – | – | among the most active free fatty acids |
